pIC50: −log10 of the molar value.
What was measured:
[1] = molecular target: CYP3A4 (Homo sapiens, UniProt P08684)
[2] = Metabolic stability in liver microsomes; format: in vitro ADME; details: Rat

CYP3A4, sequence (P08684 whole entry): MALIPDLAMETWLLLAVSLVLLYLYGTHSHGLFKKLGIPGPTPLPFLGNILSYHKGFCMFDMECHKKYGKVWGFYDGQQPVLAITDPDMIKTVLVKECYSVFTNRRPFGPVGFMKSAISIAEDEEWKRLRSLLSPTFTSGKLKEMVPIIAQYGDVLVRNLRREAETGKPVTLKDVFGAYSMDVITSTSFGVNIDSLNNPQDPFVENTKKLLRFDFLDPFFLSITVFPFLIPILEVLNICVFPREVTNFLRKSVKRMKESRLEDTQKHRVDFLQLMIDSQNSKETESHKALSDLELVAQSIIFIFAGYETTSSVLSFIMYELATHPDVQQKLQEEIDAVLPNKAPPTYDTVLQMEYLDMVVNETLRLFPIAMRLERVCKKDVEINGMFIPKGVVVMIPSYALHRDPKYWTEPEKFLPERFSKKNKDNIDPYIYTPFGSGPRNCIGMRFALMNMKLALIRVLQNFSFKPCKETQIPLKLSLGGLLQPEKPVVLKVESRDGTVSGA

Cc1cc(F)c(C(=O)Nc2cccc(-c3nncn3[C@H](C)C(F)(F)F)n2)cc1NC(=O)C1CC1 [CS17919]
pIC50 [1]: < 5.00
T1/2 in liver microsomes [2]: >145 min
